# Assay results taken from ChEMBL document CHEMBL1944599, “From libraries to candidate: the discovery of new ultra long-acting dibasic β₂-adrenoceptor agonists” (Bioorg Med Chem Lett, 2012).
# What was measured:
# [1] = molecular target: T1, Beta-2 adrenergic receptor (Homo sapiens, UniProt P07550); assay: Agonist activity at human beta2 adrenoceptor expressed in H292 cells assessed as increase in cAMP accumulation after 60 mins by spectrophotometry; type: functional, cell-based
# [2] = molecular target: T1, Beta-2 adrenergic receptor; assay: Displacement of radiolabeled iodocyanopindolol from recombinant beta2 adrenoceptor
# [3] = molecular target: Beta-1 adrenergic receptor (Homo sapiens, UniProt P08588); assay: Displacement of radiolabeled iodocyanopindolol from beta1 adrenoceptor
# Chain of Beta-1 adrenergic receptor (P08588 whole entry): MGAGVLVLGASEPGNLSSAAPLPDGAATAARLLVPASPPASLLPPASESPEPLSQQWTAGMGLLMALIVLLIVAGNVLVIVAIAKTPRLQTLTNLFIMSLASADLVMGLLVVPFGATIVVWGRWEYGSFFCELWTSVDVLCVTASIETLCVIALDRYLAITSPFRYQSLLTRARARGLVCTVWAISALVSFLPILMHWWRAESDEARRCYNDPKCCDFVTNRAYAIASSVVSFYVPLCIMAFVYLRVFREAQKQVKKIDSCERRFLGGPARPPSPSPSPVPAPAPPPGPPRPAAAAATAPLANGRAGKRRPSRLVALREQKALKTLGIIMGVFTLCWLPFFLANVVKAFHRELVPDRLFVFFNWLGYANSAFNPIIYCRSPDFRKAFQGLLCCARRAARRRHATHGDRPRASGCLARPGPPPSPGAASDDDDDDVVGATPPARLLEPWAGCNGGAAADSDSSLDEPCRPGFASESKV
# D(2) dopamine receptor = D(2) dopamine receptor (Homo sapiens, UniProt P14416); assay: Displacement of radiolabeled spiperone from dopamine D2 receptor
# Chain of D(2) dopamine receptor (P14416 whole entry): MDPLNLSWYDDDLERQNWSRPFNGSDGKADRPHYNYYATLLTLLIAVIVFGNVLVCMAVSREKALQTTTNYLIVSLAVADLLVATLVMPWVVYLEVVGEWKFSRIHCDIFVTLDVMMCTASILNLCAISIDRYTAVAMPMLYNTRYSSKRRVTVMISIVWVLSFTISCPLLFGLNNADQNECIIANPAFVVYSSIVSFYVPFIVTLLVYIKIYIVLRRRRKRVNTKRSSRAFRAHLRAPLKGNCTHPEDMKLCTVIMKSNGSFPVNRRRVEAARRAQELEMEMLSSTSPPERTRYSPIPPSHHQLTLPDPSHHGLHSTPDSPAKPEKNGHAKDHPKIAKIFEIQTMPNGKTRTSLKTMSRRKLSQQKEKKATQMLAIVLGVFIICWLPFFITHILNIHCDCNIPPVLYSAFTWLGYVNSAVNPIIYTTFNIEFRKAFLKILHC
# [4] = molecular target: T2, Alpha-1D adrenergic receptor (Homo sapiens, UniProt P25100); assay: Displacement of radiolabeled Prazosin from alpha1D adrenoceptor
# T2 sequence (P25100 whole entry): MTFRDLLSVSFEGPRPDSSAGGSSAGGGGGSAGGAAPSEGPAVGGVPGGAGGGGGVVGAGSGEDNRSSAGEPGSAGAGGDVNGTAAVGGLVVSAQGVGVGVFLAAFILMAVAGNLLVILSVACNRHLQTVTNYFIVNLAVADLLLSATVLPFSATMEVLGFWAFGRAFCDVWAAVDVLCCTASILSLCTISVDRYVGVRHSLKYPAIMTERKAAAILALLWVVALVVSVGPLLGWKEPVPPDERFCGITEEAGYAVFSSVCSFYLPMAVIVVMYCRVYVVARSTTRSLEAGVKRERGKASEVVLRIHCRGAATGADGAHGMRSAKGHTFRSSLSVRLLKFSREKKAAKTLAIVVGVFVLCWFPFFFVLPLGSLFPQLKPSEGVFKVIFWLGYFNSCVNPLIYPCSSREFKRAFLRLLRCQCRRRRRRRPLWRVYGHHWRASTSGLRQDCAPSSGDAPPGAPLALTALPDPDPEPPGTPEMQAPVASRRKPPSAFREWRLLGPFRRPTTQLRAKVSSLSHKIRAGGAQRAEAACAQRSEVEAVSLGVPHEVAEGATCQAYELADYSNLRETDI
# physchem = conditions: 1-octanol/aqueous buffer, pH 7.4
# T1 sequence (P07550 whole entry): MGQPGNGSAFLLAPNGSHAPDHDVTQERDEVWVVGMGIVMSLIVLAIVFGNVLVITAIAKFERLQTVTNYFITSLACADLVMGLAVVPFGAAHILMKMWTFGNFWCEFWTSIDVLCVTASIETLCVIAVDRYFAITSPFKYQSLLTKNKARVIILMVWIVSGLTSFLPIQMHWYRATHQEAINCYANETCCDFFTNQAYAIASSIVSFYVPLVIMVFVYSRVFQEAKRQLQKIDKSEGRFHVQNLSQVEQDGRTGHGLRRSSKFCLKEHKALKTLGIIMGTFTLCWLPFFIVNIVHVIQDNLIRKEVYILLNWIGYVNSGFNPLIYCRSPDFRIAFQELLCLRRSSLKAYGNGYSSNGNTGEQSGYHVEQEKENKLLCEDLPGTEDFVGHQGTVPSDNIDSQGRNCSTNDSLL
EC50 [1] [nM],IC50 [2] [nM],IC50 [3] [nM],IC50 (D(2) dopamine receptor) [nM],IC50 [4] [nM],logD (physchem),SMILES
1.26,6.31,7.94,79.4,39.8,,O=c1[nH]c2c(O)ccc([C@@H](O)CNCCCc3cccc(CNCCc4c(Cl)cccc4Cl)c3)c2s1
,,10,251,158,1.9,O=c1[nH]c2c(O)ccc([C@@H](O)CNCCc3cccc(CNCc4ccccc4Cl)c3)c2s1
0.251,0.631,158,631,50.1,1.6,O=c1[nH]c2c(O)ccc([C@@H](O)CNCCc3cccc(CNCCc4ccccc4Cl)c3)c2s1
0.501,0.794,20,316,158,1.1,O=c1[nH]c2c(O)ccc([C@@H](O)CNCCc3cccc(CNCCCc4ccccc4)c3)c2s1
1,0.501,63.1,> 2510,251,,O=c1[nH]c2c(O)ccc([C@@H](O)CNCCc3cccc(CNCCCc4ccccn4)c3)c2s1
0.316,0.631,79.4,398,398,1.1,Cc1cccc2c(CCNCc3cccc(CCNC[C@H](O)c4ccc(O)c5[nH]c(=O)sc45)c3)c[nH]c12
,,20,126,39.8,2.4,CC(Cc1cccc(CNCCc2c(Cl)cccc2Cl)c1)NC[C@H](O)c1ccc(O)c2[nH]c(=O)sc12 (stereo not given in full)
,,63.1,1000,25.1,0.9,COc1ccccc1CNCCc1cccc(CCNC[C@H](O)c2ccc(O)c3[nH]c(=O)sc23)c1
3.16,25.1,100,1260,31.6,,CCOc1ccccc1CNCc1cccc(CCNC[C@H](O)c2ccc(O)c3[nH]c(=O)sc23)c1
0.316,0.794,251,> 794,79.4,0.8,COc1ccccc1CCNCc1cccc(CCNC[C@H](O)c2ccc(O)c3[nH]c(=O)sc23)c1
0.794,5.01,10,794,158,0.9,COc1ccc(CNCc2cccc(CCNC[C@H](O)c3ccc(O)c4[nH]c(=O)sc34)c2)cc1
0.398,2,398,2000,50.1,1.3,O=c1[nH]c2c(O)ccc([C@@H](O)CNCCc3ccc(CNCCc4ccccc4F)cc3)c2s1
3.16,126,1260,2510,100,0.2,COc1ccccc1CNCc1ccc(CCNC[C@H](O)c2ccc(O)c3[nH]c(=O)sc23)cc1
0.631,1,6.31,631,79.4,0.7,O=c1[nH]c2c(O)ccc([C@@H](O)CNCCc3cccc(CNCc4ccccc4F)c3)c2s1
1,6.31,63.1,794,100,0.9,COc1cccc(CNCc2cccc(CCNC[C@H](O)c3ccc(O)c4[nH]c(=O)sc34)c2)c1
,,79.4,5010,316,,O=c1[nH]c2c(O)ccc([C@@H](O)CNCCc3cccc(CNCc4ccccn4)c3)c2s1
2.51,7.94,200,398,25.1,1.9,O=c1[nH]c2c(O)ccc([C@@H](O)CNCCOc3cccc(CNCCc4ccccc4F)c3)c2s1
7.94,251,1260,2000,79.4,,COc1ccccc1CNCc1ccc(CCNC[C@@H](O)c2ccc(O)c3[nH]c(=O)sc23)cc1

# Second part, the molecule before the results:
SMILES,EC50 [1] [nM],IC50 [2] [nM],IC50 [3] [nM],IC50 (D(2) dopamine receptor) [nM],IC50 [4] [nM],logD (physchem)
O=c1[nH]c2c(O)ccc(CCNCCc3ccc(CNCCc4ccccn4)cc3)c2s1,158,100,,,,
COc1ccccc1CCNCc1ccc(CCNCCc2ccc(O)c3[nH]c(=O)sc23)cc1,,200,,,,
O=c1[nH]c2c(O)ccc(CCNCCc3cccc(CN[C@H]4C[C@@H]4c4ccccc4)c3)c2s1,3.98,12.6,,,,
O=c1[nH]c2c(O)ccc([C@@H](O)CNCCc3ccc(CN4CCCC4)cc3)c2s1,39.8,,,,,
CC(CNCc1ccc(CCNC[C@H](O)c2ccc(O)c3[nH]c(=O)sc23)cc1)c1ccccc1 (stereo not given in full),0.398,0.2,501,2510,31.6,1.2
C[C@@H](NCc1ccccc1-c1ccc(CCNC[C@H](O)c2ccc(O)c3[nH]c(=O)sc23)cc1)c1ccccc1,3.98,2,,,,
O=c1[nH]c2c(O)ccc(CCNCCc3cccc(CNCCc4c(Cl)cccc4Cl)c3)c2s1,,0.631,,,,
O=c1[nH]c2c(O)ccc([C@@H](O)CNCCc3cccc(CN4CCC(c5ccccc5)CC4)c3)c2s1,1,3.98,,,,
COc1ccccc1CCNCc1ccc(CCNC[C@H](O)c2ccc(O)c3[nH]c(=O)sc23)cc1,0.316,2,316,631,7.94,
O=c1[nH]c2c(O)ccc(CCNCCc3cccc(CN4CCC(c5ccccc5)CC4)c3)c2s1,,31.6,,,,
O=c1[nH]c2c(O)ccc([C@@H](O)CNCCc3ccc(-c4cccc(CN5Cc6ccccc6C5)c4)cc3)c2s1,10,63.1,,,,
O=c1[nH]c2c(O)ccc(CCNCCc3ccc(-c4cccc(CN5Cc6ccccc6C5)c4)cc3)c2s1,,15.8,,,,
O=c1[nH]c2c(O)ccc(CCNCCc3ccc(CN4CC[C@@H](Oc5ccc(Cl)cc5)C4)cc3)c2s1,158,126,,,,
COCCNCc1ccc(CCNC[C@H](O)c2ccc(O)c3[nH]c(=O)sc23)cc1,15.8,316,794,> 10000,631,-0.5
O=c1[nH]c2c(O)ccc([C@@H](O)CNCCc3ccccc3CNCCc3ccccc3F)c2s1,1.58,12.6,2,794,200,1.6
O=c1ccc2c([C@@H](O)CNCCc3cccc(CNCCc4ccccn4)c3)ccc(O)c2[nH]1,2.51,63.1,3160,> 10000,398,
O=c1[nH]c2c(O)ccc(CCNCCc3ccc(CNCCc4c(Cl)cccc4Cl)cc3)c2s1,100,501,,,,
O=c1[nH]c2c(O)ccc(CCNCCc3ccc(CNCCc4ccccc4F)cc3)c2s1,79.4,1260,,,,
O=c1[nH]c2c(O)ccc([C@@H](O)CNCCc3ccc(CNCCc4ccccn4)cc3)c2s1,,,> 794,2510,25.1,-0.3
OCc1cc([C@@H](O)CNCCc2ccc(CNCCc3ccccc3)cc2)ccc1O,31.6,631,> 3160,> 7940,501,
CCN(Cc1ccncc1)Cc1cccc(-c2ccc(CCNCCc3ccc(O)c4[nH]c(=O)sc34)cc2)c1,316,794,,,,
